Patent publication US20050245399A1, “Pyrazole derivatives as herbicidal compositions containing them” (ISHIHARA SANGYO KAISHA, LTD., priority 2004, published 2005)

Experiments:
Format in all cases: in vivo
[1] = system: redroot pigweed (Amaranthus retroflexus L.), AMARE; experiment: Test Example 2 post-emergence (foliage treatment) herbicidal activity, AMARE; conditions: 63 g a.i./ha
In short: (§1)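 Leaf stages at treatment differed per species: 1.1-2.1 for ECHCG, 1.0-2.0 for DIGSA, 0.1-1.5 for AMARE and 1.0-2 for ORYSA. Plants grew in pots of upland soil and were sprayed with wettable powder or emulsifiable concentrate in water (500 L/ha) plus spreader at 0.1% (v/v). Visual % control followed on days 20-23.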

[2] = system: corn (Zea mays L.), ZEAMX; experiment: Test Example 2 post-emergence (foliage treatment) herbicidal activity, ZEAMX; conditions: 63 g a.i./ha
In short: (§2)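 A small sprayer delivered the diluted WP or EC formulation (500 L/ha water, 0.1% v/v spreader) over emerged seedlings in upland soil pots. Damage relative to untreated plants was graded visually from 0 to 100% three weeks or so later (days 20-23).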

[3] = system: redroot pigweed (Amaranthus retroflexus L.): AMARE; experiment: Test Example 1 pre-emergence herbicidal activity, AMARE; conditions: visually observed 20th to 23rd day after application
In short: (§3)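 Upland soil pot test. Formulated compound (wettable powder or emulsifiable concentrate) in water, 500 L/ha, sprayed one day after sowing before emergence; % control rated by eye on day 20–23.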

[4] = system: barnyardgrass (Echinochloa crus-galli L.), ECHCG; experiment: Test Example 2 post-emergence (foliage treatment) herbicidal activity, ECHCG; conditions: 63 g a.i./ha
In short: as §1

[5] = system: rice (Oryza sativa L.), ORYSA; experiment: Test Example 2 post-emergence (foliage treatment) herbicidal activity, ORYSA; conditions: 63 g a.i./ha
In short: as §1

[6] = system: japanese ribbon wapato (Sagittaria pygmaea: SA GPY); experiment: Test Example 3 water application herbicidal activity (paddy), SAGPY; conditions: 63 g a.i./ha, water application under submerged condition, tubers planted, visually observed 14th day after application; 0 = untreated control, 100 = complete kill
In short: (§4)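 Submerged application in flooded paddy soil (3–4 cm water); weeds treated at 0.5-leaf stage, transplanted rice 4 d after transplanting. Scored visually as % growth control: weeds at 14 d, rice at 21 d.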

[7] = system: wheat (Triticum aestivum L.), TRZAX; experiment: Test Example 2 post-emergence (foliage treatment) herbicidal activity, TRZAX; conditions: 63 g a.i./ha
In short: as §2

[8] = system: wheat (Triticum aestivum L.): TRZAX; experiment: Test Example 1 pre-emergence herbicidal activity, TRZAX; conditions: visually observed 20th to 23rd day after application
In short: as §3

[9] = system: japanese bulrush (Scirpus juncoides: SCPJO); experiment: Test Example 3 water application herbicidal activity (paddy), SCPJO; conditions: 63 g a.i./ha, water application under submerged condition at 0.5 leaf stage, visually observed 14th day after application; 0 = untreated control, 100 = complete kill
In short: as §4

[10] = system: crabgrass (Digitaria sanguinalis L.), DIGSA; experiment: Test Example 2 post-emergence (foliage treatment) herbicidal activity, DIGSA; conditions: 63 g a.i./ha
In short: as §1

[11] = system: soybean (Glycine max Merr.): GLXMA; experiment: Test Example 1 pre-emergence herbicidal activity, GLXMA; conditions: visually observed 20th to 23rd day after application
In short: as §3

[12] = system: green foxtail (Setaria viridis L.), SETVI; experiment: Test Example 2 post-emergence (foliage treatment) herbicidal activity, SETVI; conditions: 63 g a.i./ha
In short: as §2

[13] = system: corn (Zea mays L.): ZEAMX; experiment: Test Example 1 pre-emergence herbicidal activity, ZEAMX; conditions: visually observed 20th to 23rd day after application
In short: as §3

[14] = system: rice (Oryza sativa L.: ORYSA); experiment: Test Example 3 water application herbicidal activity (paddy), transplanted rice ORYSA; conditions: 63 g a.i./ha, water application 4th day after transplantation of 2 leaf stage rice, visually observed 21st day after application; 0 = untreated control, 100 = complete kill
In short: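 Flooded paddy-soil pots in greenhouse; ECHOR and SCPJO sown, SAGPY tubers planted a day later, compound applied into 3–4 cm water at weeds' 0.5-leaf stage. Rice transplanted at 2-leaf stage, treated day 4 after transplanting. Visual growth control 0–100% at 14 days (weeds) and 21 days (rice) after application.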

[15] = system: barnyardgrass (Echinochiloa oryzicola: ECHOR); experiment: Test Example 3 water application herbicidal activity (paddy), ECHOR; conditions: 63 g a.i./ha, water application under submerged condition at 0.5 leaf stage, visually observed 14th day after application; 0 = untreated control, 100 = complete kill
In short: as §4

[16] = system: soybean (Glycine max Merr.), GLXMA; experiment: Test Example 2 post-emergence (foliage treatment) herbicidal activity, GLXMA; conditions: 63 g a.i./ha
In short: as §2

[17] = system: prickly sida (Sida spinosa L.), SIDSP; experiment: Test Example 2 post-emergence (foliage treatment) herbicidal activity, SIDSP; conditions: 63 g a.i./ha
In short: as §2

[18] = system: rice (Oryza sativa L.): ORYSA; experiment: Test Example 1 pre-emergence herbicidal activity, ORYSA; conditions: visually observed 20th to 23rd day after application
In short: as §3

[19] = system: crabgrass (Digitaria sanguinalis L.): DIGSA; experiment: Test Example 1 pre-emergence herbicidal activity, DIGSA; conditions: visually observed 20th to 23rd day after application
In short: as §3

[20] = system: velvetleaf (Abutilon theophrasti): ABUTH; experiment: Test Example 1 pre-emergence herbicidal activity, ABUTH; conditions: visually observed 20th to 23rd day after application
In short: as §3

[21] = system: green foxtail (Setaria viridis L.): SETVI; experiment: Test Example 1 pre-emergence herbicidal activity, SETVI; conditions: visually observed 20th to 23rd day after application
In short: as §3

[22] = system: prickly sida (Sida spinosa L.): SEDSP; experiment: Test Example 1 pre-emergence herbicidal activity, SIDSP; conditions: visually observed 20th to 23rd day after application
In short: as §3

[23] = system: velvetleaf (Abutilon theophrasti), ABUTH; experiment: Test Example 2 post-emergence (foliage treatment) herbicidal activity, ABUTH; conditions: 63 g a.i./ha
In short: as §2

[24] = system: barnyardgrass (Echinochloa crus-galli L.): ECHCG; experiment: Test Example 1 pre-emergence herbicidal activity, ECHCG; conditions: visually observed 20th to 23rd day after application
In short: as §3

| Structure (SMILES) | growth controlling degree, AMARE [1] [%] | growth controlling degree, ZEAMX [2] [%] | Pre-emergence Herbicidal Activity AMARE (growth controlling degree) ([3]; Rate 63 g a.i./ha) [%] | growth controlling degree, ECHCO [4] [%] | growth controlling degree, ORYSA [5] [%] | growth controlling degrees (%) SAGPY [6] [%] | growth controlling degree, TRZAX [7] [%] | Pre-emergence Herbicidal Activity TRZAX (growth controlling degree) ([8]; Rate 63 g a.i./ha) [%] | growth controlling degrees (%) SCPJO [9] [%] | growth controlling degree, DIGSP [10] [%] | Pre-emergence Herbicidal Activity GLXMA (growth controlling degree) ([11]; Rate 63 g a.i./ha) [%] | growth controlling degree, SETVI [12] [%] | Pre-emergence Herbicidal Activity ZEAMX (growth controlling degree) ([13]; Rate 63 g a.i./ha) [%] | growth controlling degrees (%) ORYSA [14] [%] | growth controlling degrees (%) ECHOR [15] [%] | growth controlling degree, GLXMA [16] [%] | growth controlling degree, SIDSP [17] [%] | Pre-emergence Herbicidal Activity ORYSA (growth controlling degree) ([18]; Rate 63 g a.i./ha) [%] | Pre-emergence Herbicidal Activity DIGSP (growth controlling degree) ([19]; Rate 63 g a.i./ha) [%] | growth controlling degree, ABUTH [23] [%] | also measured |
| --- | --- | --- | --- | --- | --- | --- | --- | --- | --- | --- | --- | --- | --- | --- | --- | --- | --- | --- | --- | --- | --- |
| COc1c(Cl)cc(F)c(-c2nn(C)c(OC(F)F)c2Cl)c1NC(=O)C=Cc1c(Cl)cccc1Cl [Compound 1-252] | 100 | 50 | 100 | 100 | 50 | 60 | 50 | 10 | 30 | 95 | 0 | 100 | 0 | 10 | 100 | 80 | 100 | 10 | 40 | 100 | Pre-emergence Herbicidal Activity ABUTH (growth controlling degree) ([20]; Rate 63 g a.i./ha): 50%; Pre-emergence Herbicidal Activity SETVI (growth controlling degree) ([21]; Rate 63 g a.i./ha): 50%; Pre-emergence Herbicidal Activity SIDSP (growth controlling degree) ([22]; Rate 63 g a.i./ha): 20%; Pre-emergence Herbicidal Activity ECHCG (growth controlling degree) ([24]; Rate 63 g a.i./ha): 30% |
| COC(=O)CN(C=O)c1c(OC)c(Cl)cc(F)c1-c1nn(C)c(OC(F)F)c1Cl [Compound 1-20] | 100 | 40 | – | 10 | 50 | 0 | 10 | – | 20 | 20 | – | 70 | – | 30 | 90 | 50 | 90 | – | – | 60 | Pre-emergence Herbicidal Activity AMARE (growth controlling degree) ([3]; Rate 125 g a.i./ha): 100%; Pre-emergence Herbicidal Activity TRZAX (growth controlling degree) ([8]; Rate 125 g a.i./ha): 0%; Pre-emergence Herbicidal Activity GLXMA (growth controlling degree) ([11]; Rate 125 g a.i./ha): 10%; Pre-emergence Herbicidal Activity ZEAMX (growth controlling degree) ([13]; Rate 125 g a.i./ha): 0%; Pre-emergence Herbicidal Activity ORYSA (growth controlling degree) ([18]; Rate 125 g a.i./ha): 0%; Pre-emergence Herbicidal Activity DIGSP (growth controlling degree) ([19]; Rate 125 g a.i./ha): 30%; Pre-emergence Herbicidal Activity ABUTH (growth controlling degree) ([20]; Rate 125 g a.i./ha): 80%; Pre-emergence Herbicidal Activity SETVI (growth controlling degree) ([21]; Rate 125 g a.i./ha): 10%; Pre-emergence Herbicidal Activity SIDSP (growth controlling degree) ([22]; Rate 125 g a.i./ha): 98%; Pre-emergence Herbicidal Activity ECHCG (growth controlling degree) ([24]; Rate 125 g a.i./ha): 10% |
| COc1c(Cl)cc(F)c(-c2nn(C)c(OC(F)F)c2Cl)c1NC(=O)C(C)Oc1ccccc1 (stereo not drawn) [Compound 1-33] | 100 | 60 | 95 | 80 | 50 | 98 | 30 | 10 | 40 | 70 | 0 | 98 | 0 | 35 | 100 | 60 | 100 | 10 | 40 | 100 | Pre-emergence Herbicidal Activity ABUTH (growth controlling degree) ([20]; Rate 63 g a.i./ha): 40%; Pre-emergence Herbicidal Activity SETVI (growth controlling degree) ([21]; Rate 63 g a.i./ha): 50%; Pre-emergence Herbicidal Activity SIDSP (growth controlling degree) ([22]; Rate 63 g a.i./ha): 50%; Pre-emergence Herbicidal Activity ECHCG (growth controlling degree) ([24]; Rate 63 g a.i./ha): 30% |
| COc1c(Cl)cc(F)c(-c2nn(C)c(OC(F)F)c2Cl)c1NC(=O)COc1ccccc1 [Compound 1-15] | 100 | 50 | 100 | 90 | 80 | 98 | 50 | 30 | 90 | 70 | 30 | 100 | 10 | 50 | 100 | 50 | 100 | 40 | 100 | 100 | Pre-emergence Herbicidal Activity ABUTH (growth controlling degree) ([20]; Rate 63 g a.i./ha): 60%; Pre-emergence Herbicidal Activity SETVI (growth controlling degree) ([21]; Rate 63 g a.i./ha): 100%; Pre-emergence Herbicidal Activity SIDSP (growth controlling degree) ([22]; Rate 63 g a.i./ha): 60%; Pre-emergence Herbicidal Activity ECHCG (growth controlling degree) ([24]; Rate 63 g a.i./ha): 70% |
| COc1c(Cl)cc(F)c(-c2nn(C)c(OC(F)F)c2Cl)c1NC(=O)COc1ccc(C#N)cc1 [Compound 1-36] | 100 | 0 | 100 | 50 | 20 | 70 | 10 | 0 | 40 | 60 | 0 | 60 | 0 | 35 | 100 | 50 | 100 | 10 | 30 | 100 | Pre-emergence Herbicidal Activity ABUTH (growth controlling degree) ([20]; Rate 63 g a.i./ha): 30%; Pre-emergence Herbicidal Activity SETVI (growth controlling degree) ([21]; Rate 63 g a.i./ha): 60%; Pre-emergence Herbicidal Activity SIDSP (growth controlling degree) ([22]; Rate 63 g a.i./ha): 20%; Pre-emergence Herbicidal Activity ECHCG (growth controlling degree) ([24]; Rate 63 g a.i./ha): 10% |
